Test results: paper PMC6032158, “Structure–Activity Relationship of Piplartine and Synthetic Analogues against Schistosoma mansoni and Cytotoxicity to Mammalian Cells” (International Journal of Molecular Sciences, 2018)

Tests used:
[1] = tested on: 49-day-old S. mansoni adult worms; test: In vitro experiments with adult worms of S. mansoni (mortality, motor activity); assay type: cell-based, Schistosoma mansoni; conditions: for Dead Worms (%) F / Motor Activity Reduction (%) Significant F / Motor Activity Reduction (%) Slight F: female worms; for Dead Worms (%) M / Motor Activity Reduction (%) Significant M / Motor Activity Reduction (%) Slight M: male worms
Protocol: The Belo Horizonte (BH) strain of S. mansoni was maintained in Biomphalaria glabrata snails and Mesocricetus auratus hamsters at the Adolfo Lutz Institute (São Paulo, Brazil) according to standard procedures. Detailed methods for the infection of molluscs and hamsters, as well as for the recovery of parasites, were as described previously. Briefly, the intermediate host snails were exposed to light for approximately 3 h and cercariae of S. mansoni were subsequently harvested. […] All animals were handled in strict accordance with good animal practice as defined by the Animal Use Ethics Committee. The preparations and culture of schistosomes was performed as previously described. Briefly, hamsters were killed 49 days after infection for the recovery of adult schistosomes. Next, fresh adult worm pairs (male and female) were washed and placed in a 24-well culture plate (TPP, St. […] Adult schistosomes were maintained continuously in medium (with or without drugs) for 96 h as described below. In vitro assays in S. mansoni adults were performed with mated males and females. The worm pairs obtained from the infusion hamsters were washed twice with RPMI 1640 medium containing 200 U/mL penicillin, 200 μg/mL streptomycin and 2 μg/mL amphotericin B (Vitrocell, Campinas, Brazil). The mated parasites were then transferred into 24-well cell culture plates (TPP, St. […] Cultures of adult worms were monitored by microscopy or magnifying glass. The effect of the drug was assessed with emphasis on changes in worm motor activity and death of worms as previously described.

[2] = tested on: murine fibroblast (NIH-3T3) cells; test: MTT cytotoxicity assay in murine fibroblasts; assay type: cell-based
Protocol: Next, the medium was removed and various concentrations (25–800 µg/mL) of samples reconstituted in 3% DMSO were applied. DMSO (3%) was used as a control. The plates were incubated for 24 h. Next, 15 µL of MTT solution (5 mg/mL in phosphate buffer) was added to each well and the plates were incubated for 2 h. Medium was discarded and 100 µL of DMSO was added to each well. Absorbance was determined using a spectrophotometer with a microplate reader at 595 nm (Molecular Devices Corporation, Sunnyvale, CA, USA).

[3] = tested on: mouse BALB/cN macrophage (J774A.1) cell line; test: Cell viability by flow cytometry in macrophages; conditions: 24 h, 25, 100 and 400 µg/mL, vs DMEM control

SMILES: COc1cc(/C=C/C(=O)N(C(=O)NC2CCCCC2)C2CCCCC2)cc(OC)c1OC [Compound 1M]
- Dead Worms (%) F ([1]; 5 µM, 24 h): 0%
- Motor Activity Reduction (%) Significant F ([1]; 5 µM, 24 h): 0%
- Motor Activity Reduction (%) Slight F ([1]; 5 µM, 24 h): 0%
- Dead Worms (%) M ([1]; 5 µM, 24 h): 0%
- Motor Activity Reduction (%) Significant M ([1]; 5 µM, 24 h): 0%
- Motor Activity Reduction (%) Slight M ([1]; 5 µM, 24 h): 0%
- Dead Worms (%) F ([1]; 5 µM, 48 h): 0%
- Motor Activity Reduction (%) Significant F ([1]; 5 µM, 48 h): 0%
- Motor Activity Reduction (%) Slight F ([1]; 5 µM, 48 h): 0%
- Dead Worms (%) M ([1]; 5 µM, 48 h): 0%
- Motor Activity Reduction (%) Significant M ([1]; 5 µM, 48 h): 0%
- Motor Activity Reduction (%) Slight M ([1]; 5 µM, 48 h): 0%
- Dead Worms (%) F ([1]; 5 µM, 72 h): 0%
- Motor Activity Reduction (%) Significant F ([1]; 5 µM, 72 h): 0%
- Motor Activity Reduction (%) Slight F ([1]; 5 µM, 72 h): 0%
- Dead Worms (%) M ([1]; 5 µM, 72 h): 0%
- Motor Activity Reduction (%) Significant M ([1]; 5 µM, 72 h): 0%
- Motor Activity Reduction (%) Slight M ([1]; 5 µM, 72 h): 0%
- Dead Worms (%) F ([1]; 5 µM, 96 h): 0%
- Motor Activity Reduction (%) Significant F ([1]; 5 µM, 96 h): 0%
- Motor Activity Reduction (%) Slight F ([1]; 5 µM, 96 h): 0%
- Dead Worms (%) M ([1]; 5 µM, 96 h): 0%
- Motor Activity Reduction (%) Significant M ([1]; 5 µM, 96 h): 0%
- Motor Activity Reduction (%) Slight M ([1]; 5 µM, 96 h): 0%
- Dead Worms (%) F ([1]; 10 µM, 24 h): 0%
- Motor Activity Reduction (%) Significant F ([1]; 10 µM, 24 h): 0%
- Motor Activity Reduction (%) Slight F ([1]; 10 µM, 24 h): 0%
- Dead Worms (%) M ([1]; 10 µM, 24 h): 0%
- Motor Activity Reduction (%) Significant M ([1]; 10 µM, 24 h): 0%
- Motor Activity Reduction (%) Slight M ([1]; 10 µM, 24 h): 0%
- Dead Worms (%) F ([1]; 10 µM, 48 h): 0%
- Motor Activity Reduction (%) Significant F ([1]; 10 µM, 48 h): 0%
- Motor Activity Reduction (%) Slight F ([1]; 10 µM, 48 h): 0%
- Dead Worms (%) M ([1]; 10 µM, 48 h): 0%
- Motor Activity Reduction (%) Significant M ([1]; 10 µM, 48 h): 0%
- Motor Activity Reduction (%) Slight M ([1]; 10 µM, 48 h): 0%
- Dead Worms (%) F ([1]; 10 µM, 72 h): 0%
- Motor Activity Reduction (%) Significant F ([1]; 10 µM, 72 h): 0%
- Motor Activity Reduction (%) Slight F ([1]; 10 µM, 72 h): 0%
- Dead Worms (%) M ([1]; 10 µM, 72 h): 0%
- Motor Activity Reduction (%) Significant M ([1]; 10 µM, 72 h): 0%
- Motor Activity Reduction (%) Slight M ([1]; 10 µM, 72 h): 0%
- Dead Worms (%) F ([1]; 10 µM, 96 h): 0%
- Motor Activity Reduction (%) Significant F ([1]; 10 µM, 96 h): 0%
- Motor Activity Reduction (%) Slight F ([1]; 10 µM, 96 h): 0%
- Dead Worms (%) M ([1]; 10 µM, 96 h): 0%
- Motor Activity Reduction (%) Significant M ([1]; 10 µM, 96 h): 0%
- Motor Activity Reduction (%) Slight M ([1]; 10 µM, 96 h): 0%
- Dead Worms (%) F ([1]; 25 µM, 24 h): 0%
- Motor Activity Reduction (%) Significant F ([1]; 25 µM, 24 h): 0%
- Motor Activity Reduction (%) Slight F ([1]; 25 µM, 24 h): 0%
- Dead Worms (%) M ([1]; 25 µM, 24 h): 0%
- Motor Activity Reduction (%) Significant M ([1]; 25 µM, 24 h): 0%
- Motor Activity Reduction (%) Slight M ([1]; 25 µM, 24 h): 0%
- Dead Worms (%) F ([1]; 25 µM, 48 h): 0%
- Motor Activity Reduction (%) Significant F ([1]; 25 µM, 48 h): 0%
- Motor Activity Reduction (%) Slight F ([1]; 25 µM, 48 h): 0%
- Dead Worms (%) M ([1]; 25 µM, 48 h): 0%
- Motor Activity Reduction (%) Significant M ([1]; 25 µM, 48 h): 0%
- Motor Activity Reduction (%) Slight M ([1]; 25 µM, 48 h): 0%
- Dead Worms (%) F ([1]; 25 µM, 72 h): 0%
- Motor Activity Reduction (%) Significant F ([1]; 25 µM, 72 h): 0%
- Motor Activity Reduction (%) Slight F ([1]; 25 µM, 72 h): 0%
- Dead Worms (%) M ([1]; 25 µM, 72 h): 0%
- Motor Activity Reduction (%) Significant M ([1]; 25 µM, 72 h): 0%
- Motor Activity Reduction (%) Slight M ([1]; 25 µM, 72 h): 0%
- Dead Worms (%) F ([1]; 25 µM, 96 h): 0%
- Motor Activity Reduction (%) Significant F ([1]; 25 µM, 96 h): 0%
- Motor Activity Reduction (%) Slight F ([1]; 25 µM, 96 h): 0%
- Dead Worms (%) M ([1]; 25 µM, 96 h): 0%
- Motor Activity Reduction (%) Significant M ([1]; 25 µM, 96 h): 0%
- Motor Activity Reduction (%) Slight M ([1]; 25 µM, 96 h): 0%
- Dead Worms (%) F ([1]; 50 µM, 24 h): 0%
- Motor Activity Reduction (%) Significant F ([1]; 50 µM, 24 h): 0%
- Motor Activity Reduction (%) Slight F ([1]; 50 µM, 24 h): 0%
- Dead Worms (%) M ([1]; 50 µM, 24 h): 0%
- Motor Activity Reduction (%) Significant M ([1]; 50 µM, 24 h): 0%
- Motor Activity Reduction (%) Slight M ([1]; 50 µM, 24 h): 0%
- Dead Worms (%) F ([1]; 50 µM, 48 h): 0%
- Motor Activity Reduction (%) Significant F ([1]; 50 µM, 48 h): 0%
- Motor Activity Reduction (%) Slight F ([1]; 50 µM, 48 h): 0%
- Dead Worms (%) M ([1]; 50 µM, 48 h): 0%
- Motor Activity Reduction (%) Significant M ([1]; 50 µM, 48 h): 0%
- Motor Activity Reduction (%) Slight M ([1]; 50 µM, 48 h): 0%
- Dead Worms (%) F ([1]; 50 µM, 72 h): 0%
- Motor Activity Reduction (%) Significant F ([1]; 50 µM, 72 h): 0%
- Motor Activity Reduction (%) Slight F ([1]; 50 µM, 72 h): 0%
- Dead Worms (%) M ([1]; 50 µM, 72 h): 0%
- Motor Activity Reduction (%) Significant M ([1]; 50 µM, 72 h): 0%
- Motor Activity Reduction (%) Slight M ([1]; 50 µM, 72 h): 0%
- Dead Worms (%) F ([1]; 50 µM, 96 h): 0%
- Motor Activity Reduction (%) Significant F ([1]; 50 µM, 96 h): 0%
- Motor Activity Reduction (%) Slight F ([1]; 50 µM, 96 h): 0%
- Dead Worms (%) M ([1]; 50 µM, 96 h): 0%
- Motor Activity Reduction (%) Significant M ([1]; 50 µM, 96 h): 0%
- Motor Activity Reduction (%) Slight M ([1]; 50 µM, 96 h): 0%
- activity against S. mansoni adult worms (in words) ([1]; analogues 50, 25, 10 and 5 μM, piplartine 5 and 10 μM, up to 96 h): did not present biological activity against the S. mansoni parasite
- effect on NIH-3T3 cell viability (in words) ([2]; MTT, 24 h exposure, 25 to 800 µg/mL): considerable reduction in cell viability at concentrations of 400 and 800 μg/mL
- Emax at 800 µg/mL ([2]; Mus musculus, NIH3T3, 24 h, decrease in cell viability at the maximum concentration tested (800 μg/mL), NIH-3T3, 24 h): 70.9 ± 1.2%
- effect on J774A.1 cell viability (in words) [3]: significantly altered (p < 0.05) cell viability in comparison with the negative control, but not in a toxic manner
